From patent EP4696306A1, “ADENOSINE TRIPHOSPHATE SECRETION INHIBITOR, HEPATIC STELLATE CELL ACTIVATION INHIBITOR, HEPATIC STELLATE CELL DEACTIVATOR, HEPATIC FIBROSIS THERAPEUTIC AGENT, NON-ALCOHOLIC STEATOHEPATITIS THERAPEUTIC AGENT, PSORIASIS THERAPEUTIC AGENT, AND USE OF COMPOUND FOR PRODUCING ADENOSINE TRIPHOSPHATE …” (KURUME UNIVERSITY, priority 2023, dated 2024)

Tested on: imiquimod-induced psoriasis
Experiment: Imiquimod-induced psoriasis model
Assay type: in vivo, mice
Conditions: for auricular thickening and psoriatic symptoms: Example 21, N = 2
Protocol: Experimental psoriatic symptoms were induced in a mouse auricle by imiquimod. Six-week-old male C57BL/6 mice (N = 5) were acclimated for one week. On Days 1 to 7, 62.5 mg of 5% imiquimod cream (Beselna Cream 5%) (3.125 mg in terms of the active ingredient, manufactured by Mochida Pharmaceutical Co. Ltd.) was applied to the right auricle of the mice for 7 consecutive days (IMQ group). Once daily after the imiquimod application, the imeglimin administration group (IMQ + IMG group) received oral administration, at 40 mg/kg, of 500-mg Twymeeg (trademark) tablets (manufactured by Sumitomo Pharma Co. Ltd.) dissolved in physiological saline. The control group received an equal volume of physiological saline. On Day 8, the mice were euthanized by cervical dislocation, and auricle thickness was measured using a dial thickness gauge (manufactured by Adachi Sogyo Co., Ltd.).
Each excised mouse auricle was fixed in 4% paraformaldehyde at 4°C overnight. After ethanol substitution, the auricle was embedded in paraffin, sectioned using a rotary microtome Leica RM2165 (thickness, […]), and subjected to HE staining or immunohistochemical staining. For the immunohistochemical staining, the sections were deparaffinized, washed in xylene, and rehydrated through graded alcohols. The sections were incubated in DAKO at 95°C for 30 minutes. The sections were blocked at room temperature for 60 minutes and then incubated at room temperature for 2 hours to allow reaction with a TGM1 anti-rabbit polyclonal antibody (catalog number 12912-3-AP, manufactured by Proteintech). The sample was washed and then allowed to react with a secondary antibody (Alexa 544-conjugated secondary antibody (goat anti-rabbit IgG) (manufactured by Molecular Probes)) at room temperature for 60 minutes. After allowing reaction with DAPI at room temperature for 10 minutes, the sections were mounted with Fluoromount and imaged using a fluorescence microscope (BZ-X710, manufactured by Keyence).
The dorsal hair of mice was shaved and depilated (Day 0). To each of the left auricle and the depilated back of each mouse, 62.5 mg of 5% imiquimod cream (Beselna Cream 5%) was applied once daily a total of seven times (Days 1 to 7) in accordance with Example 18, to induce imiquimod-induced psoriasis (IMQ group). In the IMQ + IMG group, mice received oral administration of imeglimin (40 mg/kg) once daily (Day 1 to 7) after the imiquimod application. […] Thickness of the auricle was measured, and the degrees of erythema, desquamation, and infiltration in the affected area were rated on Days 1, 3, 5, 7, and 8 according to the PASI scoring of the DermNET Dermatology Resource (none: 0, mild: 1, moderate: 2, severe: 3, and very severe: 4). The resulting values were used to calculate the PASI score.
Further, for an auricle excised on Day 8, immunohistochemical staining was performed in the same manner as in Example 18, and auricular sections were imaged using a fluorescence microscope (BZ-X710; manufactured by Keyence Corporation).
On Days 1, 2, 3, 5, and 6, 62.5 mg of 5% imiquimod cream (Beselna Cream 5%) was applied to auricles of wild-type mice (IMQ) or VNUT knockout mice (VNUT KO + IMQ) to induce psoriatic symptoms. […] For a negative control, only 20% glycerin solution was applied. In IMQ + 1% IMG and IMQ + 0.1% IMG, 20% glycerin solution supplemented with 1% (w/v) imeglimin and 0.1% (w/v) imeglimin, respectively, was applied immediately after the imiquimod application. Further, in IMQ + 1% Clo and IMQ + 0.1% Clo, 20% glycerin solution supplemented with 1% (w/v) clodronate and 0.1% (w/v) clodronate, respectively, was applied immediately after the imiquimod application.

| Compound | auricular thickening and psoriatic symptoms (topical 20% glycerin solution with 0.1% (w/v) clodronate) | auricular thickening and psoriatic symptoms (topical 20% glycerin solution with 1% (w/v) clodronate) | epidermal desquamation and psoriatic symptoms of the auricle (Example 18, oral 40 mg/kg once daily, Days 1 to 7 (Twymeeg tablets dissolved in saline), N = 5) | auricle thickening induced by imiquimod (Example 18, oral 40 mg/kg once daily, Days 1 to 7, N = 5) | typical psoriatic symptoms (auricular thickness, desquamation, infiltration, PASI score), except erythema (Example 19, imeglimin 40 mg/kg orally once daily Day 1 to 7, N = 5) | effect compared with infliximab (Example 19, imeglimin 40 mg/kg orally versus infliximab 100 µg/mouse i.v.) | auricular thickening and psoriatic symptoms (topical 20% glycerin solution with 0.1% (w/v) imeglimin) | auricular thickening and psoriatic symptoms (topical 20% glycerin solution with 1% (w/v) imeglimin) |
| --- | --- | --- | --- | --- | --- | --- | --- | --- |
| O=P(O)(O)C(Cl)(Cl)P(=O)(O)O [clodronate] | the degree of auricular thickening was improved | the degree of auricular thickening was improved | – | – | – | – | – | – |
| C[C@H]1N=C(N(C)C)N=C(N)N1 [imeglimin] | – | – | eliminated epidermal desquamation and reduced the psoriatic symptoms | suppressed | reduced | almost equivalent, or imeglimin was more effective | no effect | the degree of auricular thickening was improved |
